Key:
[1] = tested on: PBMCs from healthy donors or cancer patients; test: IFNγ ELISPOT on PBMCs after one week peptide and IL-2 stimulation (Example 2); type: cell-based, human; conditions: for spontaneous IFNγ ELISPOT responses against 20-mer library peptides: cancer (melanoma) patient PBMCs, FIG. 9A
Protocol: PBMCs from healthy donors or cancer patients were stimulated with 80 μg of arginase-derived peptides and 120 U/ml IL-2 (Peprotech, London, UK, cat. 200-02) for a week. 4-6×10^5 PBMCs were then placed in the bottom of ELISPOT plate (nitrocellulose bottomed 96-well plates by MultiScreen MAIP […]; Millipore, cat. MSIPN4W50) pre-coated with IFN-y capture Ab (Mabtech, cat. 3420-3-1000) and 1-10 μg of arginase derived peptides were added. PBMCs from each patient and donors were set up in duplicates or triplicates for peptide and control stimulations. Cells were incubated in ELISPOT plates in the presence of an antigen for 14-16 hours after which they are washed off and secondary biotinylated Ab (Mabtech, cat. 3420-6-1000) was added. After 2 h incubation unbound secondary antibody was washed off and streptavidin conjugated alkaline phosphatase (AP) (Mabtech, cat. 3310-10) was added for 1 h. Next, unbound conjugated enzyme is washed off and the assay is developed by adding BCIP/NBT substrate (Mabtech, cat. 3650-10). Developed ELISPOT plates were analysed on CTL ImmunoSpot S6 Ultimate-V analyzer using Immunospot software v5.1. Responses were calculated as the difference between average numbers of spots in wells stimulated with Arginase-1 peptides and control wells. We divided the entire arginase-1 protein sequence into overlapping 20-amino-acid-long peptides, generating a library of 31 peptides covering the whole sequence (SEQ ID NOs 18-48)). Each peptide in the library overlapped with the first 10 amino acids of the following peptide. Using this arginase peptide library and the IFNγ ELISPOT assay, we next screened PBMCs from melanoma patients and healthy donors for spontaneous responses (FIGS. 9A and 9B). The PBMCs were stimulated for one week with a pool of 3-4 adjacent 20-mer arginase library peptides and low-dose IL-2 (120 U/mL). They were then set up for an IFNγ ELISPOT assay to screen for responses against each 20-mer peptide separately. […] Among these overlapping peptides, […]-200), and Arg(191-210) spanned a 50-amino-acid-long region that was deemed a hot-spot region since nearly all patients harbored a response against one or more of these peptides (FIG. 9A). The selected eight peptides were further used to screen for spontaneous immune responses against arginase-1 in PBMCs from eight healthy donors using IFNγ ELISPOT. […] Since we most frequently observed responses against arginase-1 peptides from the hot-spot region, we next analyzed whether longer peptides covering the same sequence could be used instead of four 20-mers. […] We then divided the arginase-1 hot-spot region into two 30-mer peptides that overlapped by 10 amino acids (peptides labelled by reference to start and end position): […]-190) and […]-210). These 30-mer peptides were used to check for responses in selected PBMCs from cancer patients and healthy donors, which had previously shown responses against the 20-mer hot-spot peptides. The PBMCs were stimulated for one week with either […]-190) or […]-210) in the presence of IL-2, and were then used in IFNγ ELISPOT.

[2] = tested on: TILs from eight melanoma patients; test: Intracellular staining for IFNγ and TNFα release in melanoma TILs; type: cell-based, human; conditions: for IFNγ or TNFα release from CD8+ T cells: TILs; for IFNγ or TNFα release from CD8+ T cells / IFNγ release from CD4+ T cells: 5 h peptide stimulation; for IFNγ release from CD4+ T cells: one of the TIL cultures, FIG. 10A
Protocol: Flow cytometry analysis was performed on a FACSCantoTM II (BD Biosciences, San Jose CA, USA). Intracellular staining of cell cultures was performed after the cells were stimulated with 20-mere peptides for 5 hours or 30-mere peptides for 8h (BD GolgiPlugTM cat. 555029, was added after the first hour). The cells were then stained for surface markers, then washed and permeabilized by using Fixation/Permeabilization and Permeabilization Buffer (eBioscience, cat. 00-5123-43), according to manufacturer's instructions. Antibodies used: IFNγ-APC (cat. 341117), TNFα-BV421 (cat. 562783), CD4-FITC (cat. 347413), CD8-PerCP (cat. 345774) (all from BD Biosciences). Dead cells were stained using FVS510 (564406, BD Biosciences) according to manufacturer's instructions. To investigate the potential presence of arginase-specific T cells among tumor-infiltrating lymphocytes in cancer, we screened TILs from eight melanoma patients for responses against arginase-1 derived peptides. To this end, we performed intracellular staining for IFNγ and TNFα release in response to peptide stimulation. TILs were thawed and rested overnight without IL-2, and then stimulated for 5 h with three hot-spot immunogenic region 20-mer peptides (peptides labelled by reference to start and end position): […]-200). […] The percentage of IFNγ-producing cells was higher for […]-190) and […]-200) compared to […]-180), and the response against […]-200) was almost twice that against […]-180).

[3] = tested on: peripheral blood mononuclear cells (PBMC); test: IFN-gamma ELISPOT secretion assay on PBMC (Example 1); type: cell-based, human; conditions: PBMC from three cancer patients; FIG. 3
[4] = tested on: CT26.WT colon cancer cells; test: Tumor vaccination of Balb/c mice bearing CT26.WT tumors; type: in vivo, mouse; conditions: for tumor growth relative to vaccination with control peptide: vaccination day6 and day 13, FIG. 16
C57BL/6 and Balb/c mice = test: Peptide vaccination of mice and IFNgamma ELISPOT of spleen or dLN cells; type: in vivo, mouse; conditions: 100 μg peptide s.c. day0 and day7
Protocol: Animals were vaccinated subcutaneously with 100 μg peptide in DMSO/H2O in a 1:1 emulsion with incomplete Freund's adjuvant (IFA) or montanide. IFA+DMSO/H2O served as a control vaccine. Vaccinations were carried out on day0 and day7. For subsequent analysis of the immune response to specific peptides, mice were sacrificed on day 14 and spleen and draining lymph nodes (dLNs) were harvested.
Murine immune cells were subjected to ELISPOT analysis. Single cell suspension was prepared from spleen or dLNs by passage through a cell strainer. After lysis of red blood cells, 0.9×10E6 cells/well were seeded into ELISPOT plates coated with anti-IFNgamma antibody. Peptide of interest was added to designated wells and cells were incubated o/n with peptide. The next day, cells were removed, plates washed and incubated with biotinylated detection antibody. Finally, after addition of Streptavidin-ALP and substrate visible spots appear. Each spot corresponds to an individual IFNgamma producing cell. Plates were analysed in an Immunospot analyser and plotted as spots/0.9×10E6 cells minus background (i.e. minus number of spots in corresponding unstimulated (no peptide) wells).

[5] = tested on: arginase-specific CD4+ T-cell culture; test: Recognition by arginase-specific CD4+ T-cell culture (ArgShort-stimulated); type: cell-based, human; conditions: IFNγ ELISPOT and intracellular staining; FIG. 11C
Protocol: PBMCs from healthy donors or cancer patients were stimulated with 80 μg of arginase-derived peptides and 120 U/ml IL-2 (Peprotech, London, UK, cat. 200-02) for a week. 4-6×10^5 PBMCs were then placed in the bottom of ELISPOT plate (nitrocellulose bottomed 96-well plates by MultiScreen MAIP N45; Millipore, cat. MSIPN4W50) pre-coated with IFN-y capture Ab (Mabtech, cat. 3420-3-1000) and 1-10 μg of arginase derived peptides were added. PBMCs from each patient and donors were set up in duplicates or triplicates for peptide and control stimulations. Cells were incubated in ELISPOT plates in the presence of an antigen for 14-16 hours after which they are washed off and secondary biotinylated Ab (Mabtech, cat. 3420-6-1000) was added. After 2 h incubation unbound secondary antibody was washed off and streptavidin conjugated alkaline phosphatase (AP) (Mabtech, cat. 3310-10) was added for 1 h. Next, unbound conjugated enzyme is washed off and the assay is developed by adding BCIP/NBT substrate (Mabtech, cat. 3650-10). Developed ELISPOT plates were analysed on CTL ImmunoSpot S6 Ultimate-V analyzer using Immunospot software v5.1. Responses were calculated as the difference between average numbers of spots in wells stimulated with Arginase-1 peptides and control wells.
Arginase-specific T cell culture were established by stimulation of cancer patient PBMC with irradiated ArgShort (SEQ ID NO 9) peptide-loaded autologous DC or PBMCs. The following day IL-7 and IL-12 (PeproTech, London, UK, cat. 200-07-10 and 200-12) were added. Stimulation of the cultures were carried out every 8 days with ArgShort peptide loaded irradiated autologous DC followed by ArgShort peptide-loaded irradiated autologous PBMC. The day after peptide stimulation IL-2 […]. After 5 stimulations arginase-specific T cells were enriched using TNF-α cell enrichment kit (MiltenyiBiotec, cat. 130-091-269).
Flow cytometry analysis was performed on a FACSCanto™ II (BD Biosciences, San Jose CA, USA). […]

[6] = CD4+ T cells in TILs, 5 h stimulation

Sequence	spontaneous IFNγ ELISPOT responses against 20-mer library peptides [1]	percentage of IFNγ-producing cells compared to Arg(161-180) [2, 6]	response relative to that against Arg(161-180) [2, 6]	IFNγ or TNFα release from CD8+ T cells [2]	IFNγ release from CD4+ T cells [2]	immune responses against overlapping 20mer peptides [3]	size of the tumor growth effect among the tested peptides [4]	tumor growth relative to vaccination with control peptide [4]	immunogenicity (peptide specific IFNgamma ELISPOT response) (C57BL/6 and Balb/c mice; Balb/c mice, FIG. 15)	immunogenicity (peptide specific IFNgamma ELISPOT response) (C57BL/6 and Balb/c mice; C57BL/6 mice, FIG. 14)	IFNγ ELISPOT responses against longer hot-spot peptides ([1]; selected PBMCs from cancer patients and healthy donors, one week stimulation with IL-2, FIG. 10B, 10C)	recognition by T-cell culture specific against the minimal arginase epitope [5]
DVDPGEHYILKTLGIKYFSM (Peptide frgment of human Arginase 1) [Arg1-19, positions 181-200 of human Arginase 1]	highest and most abundant responses	higher	almost twice that against Arg(161-180)	No IFNγ or TNFα release was observed	IFNγ was released from CD4+ T cells	Frequent immune responses were detected	most noticeable	inhibit tumor growth	immunogenic	immunogenic	–	–
KDIVYIGL (Peptide fragment of human Arginase 1) [mARG1, positions 172-179 of human Arginase 1; murine region identical]	–	–	–	–	–	–	–	–	–	immunogenic	–	–
KTLGIKYFSMTEVDKLGIGK (Peptide fragment of murine Arginase 1) [mARG20, positions 191-210 of murine Arginase 1]	–	–	–	–	–	–	most noticeable	inhibit tumor growth	immunogenic	immunogenic	–	–
GFSWVTPCISAKDIVYIGLR (Peptide fragment of human Arginase 1) [Arg1-17, positions 161-180 of human Arginase 1; murine region identical]	highest and most abundant responses	–	–	No IFNγ or TNFα release was observed	IFNγ was released from CD4+ T cells	Frequent immune responses were detected	–	inhibit tumor growth	immunogenic	immunogenic	–	–
LGIKYFSM (Peptide fragment of human Arginase 1) [mARG2, positions 193-200 of human Arginase 1; murine region identical]	–	–	–	–	–	–	–	–	not immunogenic	not immunogenic	–	–
GFSWVTPCISAKDIVYIGLRDVDPGEHYILKTLGIKYFSMTEVDRLGIGK (Peptide fragment of human Arginase 1) [50-mer peptide, 50-mer covering the entire hot-spot region, positions 161-210 of human Arginase 1]	–	–	–	–	–	–	–	–	–	–	lower responses compared to the 20-mer peptides	not recognized

Reference: patent US11981944B2, “Immunogenic arginase peptides” (IO Biotech ApS, priority 2016, dated 2024)
